Assay results: article PMC5947712, “High‐Throughput Kinetic Analysis for Target‐Directed Covalent Ligand Discovery” (Angewandte Chemie (International Ed. in English), 2018)
“And” between values parts separate entries of the source, which are not always exact repeats. Equal entries are not always repeated.

Tests used:
[1] = target: Cdk2(WT) (Homo sapiens, UniProt P24941); assay: qIT thiol consumption assay with Cdk2(WT) (Cys177); type: binding; design: made in house; host or cells: E. coli Tuner(DE3); conditions: for k Cdk2(WT) (pseudo-first-order rate constant): compound 0.5 mM, Cdk2(WT) 5 μM, TCEP-agarose 2 % w/v
[2] = target: T1, Cdk2:cyclin A2 (Homo sapiens, UniProt P24941); assay: In vitro kinase activity after 24 h incubation of active Cdk2:cyclin A2 with acrylamides; type: biochemical; conditions: 0.5 mM, n=3, read-out: % inhibition ± SEM Cdk2
T1 construct: GST (N, cleaved yes); made in house; host or cells: E. coli Tuner(DE3)
Description: Figure 6 a) Sequence alignment of Cdk family. Cys177 is highlighted in yellow. b) Published selectivity profiles of selected Cdk2 inhibitors.29 c) Active Cdk1/Cdk2:cyclin A2 was incubated with acrylamides 1 and 2 (0.5 mM) for 24 hours and then their in vitro kinase activity was measured (n=3). […]
Tables! 2R6.! Molecular! replacement! was! conducted! on! all! data! sets! using!Phaser[14]/MOLREP[15]!against! apoRCdk2! (PDB:!
4EK3)!and!the! model! was! iteratively! refined! using! Phenix.Refine[16]!with! manual! modelling! and! adjustments! carried! out! in!
COOT[17].! Descriptions! of! the! ligands! and! links! were! generated! with! JLigand[18]!and! refined! with! Refmac[19].! Electron! density! […]
Cdk2! (1! mg)! was! sequentially! incubated! with! aliquots! of! CAK1! (3!×!0.05! mg)! at! r.t.! for! […]
Phosphorylation! of! […] Cdk2! during! gel! electrophoresis! and! the! reaction! was! monitored! by! […]
initiated!by!addition!of!0.5!mM!ATP!and!0.24!mM!substrate!peptide!([…])!and!the!absorbance!at!340!nm!was!moniR […]
plate! reader! […]
was!measured!from!the!gradient!during!the!linear!phase!of!product!accumulation.!! […]
ments,! the! wavelength! was! adjusted! to! 230! nm! and! elipticity! was! measured! at! […]
repeats!of!10!s!integrations!per!temperature.!The!meltRtemperature!(Tm)!was!determined!using!Prism!6.0!by!fitting!a!sigmoidal! […]
The! cell! lysates! were!diluted! to! […] RIPA! lysis! buffer,! as! quantified! by! the! […]

k Cdk2(WT) (pseudo-first-order rate constant) [1] [h⁻¹]	REF Cdk2(WT) (rate enhancement factor = k protein/k GSH) [1]	inhibition at 500 µM [2] [%]	SMILES
0.204	5.0	83 ± 3	C=CC(=O)N1CCN(C(=O)OC(C)(C)C)c2ccccc21 [Acrylamide 1]
0.233	2.6 and 2.63	5 ± 6	C=CC(=O)N1CCN(C(=O)OC)c2ccccc21 [Acrylamide 2]
